Publication PMC2773450 (Analytical biochemistry, 2008)
pIC50: −log10 of the molar value.

Biological target: T1, O^6-alkylguanine—DNA alkyltransferase (AGT) (Homo sapiens, UniProt P16455)
T1 sequence (P16455 1-207): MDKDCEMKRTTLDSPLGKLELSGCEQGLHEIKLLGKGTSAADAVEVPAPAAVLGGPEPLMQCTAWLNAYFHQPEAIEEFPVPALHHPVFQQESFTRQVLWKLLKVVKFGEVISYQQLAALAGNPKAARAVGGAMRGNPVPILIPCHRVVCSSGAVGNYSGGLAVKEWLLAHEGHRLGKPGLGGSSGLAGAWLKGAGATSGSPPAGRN

## O^6-(thiophenemethyl)guanine [TMG]
  pIC50: 7.64
